Paper PMC10112521, “High-throughput AR dimerization assay identifies androgen disrupting chemicals and metabolites” (Frontiers in Toxicology, 2023)
Where “and” joins values, the source holds several entries; their conditions need not be identical. Identical values can stand only once. Like-named read-outs stand apart in the source and are kept apart here.

Assays:
[1] = system: human AR (LBD and AF2 domains) and the RID of human SRC2; set-up: method as in U.S. EPA, 2002b; details: activity call, agonist mode, 2 h; invitroDBv3.4 ref U.S. EPA, 2002b; cited from earlier work
[2] = molecular target: T1, human AR (Homo sapiens, UniProt P10275); test: AR2 assay, antagonist mode: disruption of R1881 (10 nM)-induced AR homodimerization in HepG2-AR2 cells; assay type: cell-based
T1 sequence (P10275 1-920) 1: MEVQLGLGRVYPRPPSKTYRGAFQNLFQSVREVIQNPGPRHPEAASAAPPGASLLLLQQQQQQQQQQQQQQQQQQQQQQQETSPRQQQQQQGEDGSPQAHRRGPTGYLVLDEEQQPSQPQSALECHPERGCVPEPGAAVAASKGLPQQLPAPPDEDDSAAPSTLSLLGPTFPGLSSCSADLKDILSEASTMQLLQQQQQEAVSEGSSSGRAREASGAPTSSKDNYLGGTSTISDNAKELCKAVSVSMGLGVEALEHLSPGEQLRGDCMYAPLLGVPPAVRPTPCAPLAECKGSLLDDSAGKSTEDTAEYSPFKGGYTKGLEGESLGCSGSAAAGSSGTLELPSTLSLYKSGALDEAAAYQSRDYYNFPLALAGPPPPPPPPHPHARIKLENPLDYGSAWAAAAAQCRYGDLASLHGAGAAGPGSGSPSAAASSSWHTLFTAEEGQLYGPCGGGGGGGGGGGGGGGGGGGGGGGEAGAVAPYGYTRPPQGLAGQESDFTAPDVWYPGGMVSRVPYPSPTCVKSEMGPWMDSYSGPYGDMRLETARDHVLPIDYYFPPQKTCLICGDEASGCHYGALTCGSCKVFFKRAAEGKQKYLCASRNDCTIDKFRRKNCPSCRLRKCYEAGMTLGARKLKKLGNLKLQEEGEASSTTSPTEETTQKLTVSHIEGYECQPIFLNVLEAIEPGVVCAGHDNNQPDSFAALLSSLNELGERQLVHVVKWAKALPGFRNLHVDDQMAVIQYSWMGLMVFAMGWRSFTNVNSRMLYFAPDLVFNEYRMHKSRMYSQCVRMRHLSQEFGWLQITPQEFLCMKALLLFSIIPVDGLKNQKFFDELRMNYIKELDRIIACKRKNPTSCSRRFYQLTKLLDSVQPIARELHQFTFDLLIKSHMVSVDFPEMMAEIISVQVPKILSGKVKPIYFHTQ
T1 sequence (P10275 1-920) 2: T1 sequence (P10275 1-920) 1

[3] = molecular target: T1, human AR; test: AR2 assay, agonist mode: ligand-dependent AR homodimerization (NanoBiT luciferase complementation) in stable HepG2-AR2 cells; assay type: cell-based; set-up: Emax: dose or concentration left out as unconfirmed;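 on hill tp: Log2 fold change of luminescence over DMSO vehicle wells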;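 on max med: Log2 fold change of luminescence over DMSO vehicle wells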
[4] = system: full-length human AR and the receptor interacting domain (RID) of SRC1; set-up: method as in U.S. EPA, 2002b; details: cited from earlier work
[5] = system: AR2 cells (HepG2-AR2); test: Alamar Blue (resazurin) post hoc cell viability / cytotoxicity assay in AR2 cells; details: spid Viability, sheet antagonist_fits; for hill_tp (Hill model top): 0 where win_model is Constant
Method: (§1) For antagonist mode and cytotoxicity data, well-level normalized response (resp) was calculated as: resp=100 * RLU−bval/pval−bval where pval is the median RLU value of the MEC positive control wells (minimum four wells).

[6] = system: AR; set-up: method as in Kleinstreuer et al., 2017; details: 2017, cited from earlier work; for Agonist reference: AR agonist reference class ref Kleinstreuer et al.; for Antagonist reference: AR antagonist reference class ref Kleinstreuer et al.
[7] = molecular target: T1, human AR; test: cell-based; set-up: species or system AR2 cells (HepG2-AR2); NanoLuc complementation AR homodimerization, antagonist mode, loss of agonist-induced luminescence, AC50 by Hill fit; details: hill_ga, antagonist mode, 10 nM agonist stimulus, 18 h, no CYP expressed
[8] = system: human AR (LBD and AF2 domains) and the RID of human SRC2; set-up: method as in U.S. EPA, 2002b; details: cited from earlier work
[9] = molecular target: T1, human AR; test: AR2 assay, antagonist mode, retrofitted with human CYP metabolism by mRNA transfection (biogroups no RNA, Bgal, ten CYPs)
[10] = molecular target: T1, human AR; test: cell-based
[11] = molecular target: T1, human AR; test: cell-based; set-up: species or system AR2 cells (HepG2-AR2); NanoLuc complementation AR homodimerization, agonist mode, luminescence gain, AC50 by Hill fit; details: hill_ga
[12] = system: AR2 cells (HepG2-AR2)
Method: as §1

[13] = molecular target: T1, human AR
[14] = spid AR_antagonist, sheet antagonist_fits
[15] = spid AR_antagonist, sheet antagonist_fits, 0 where win_model is Constant
[16] = sheet agonist_fits, Hill model top (efficacy), 0 given where win_model is Constant
[17] = sheet agonist_fits, maximum median response
[18] = sheet agonist_fits, winning concentration-response model (Constant, Hill, Gain-Loss)

| Compound | UPitt agonist [1] | win_model (winning concentration-response model) [2, 14] | hill_gw (Hill model slope) [2, 15] | hill_tp [3, 16] | max_med [3, 17] | win_model [3, 18] | max_med (maximum median response) [5] | hill_tp (Hill model top) [5] | Agonist reference [6] | Antagonist reference [6] | Agonist reference ([6]; Supplementary Table S1) | AC50 ([7]; spid=Bgal) [nM] | AC50 ([7]; spid=No_RNA) [nM] | hill_tp (Hill model top) [2] | max_med (maximum median response) [2] | hill_gw [3] | hill_tp [3] | max_med [3] | win_model [3] | also measured |
| --- | --- | --- | --- | --- | --- | --- | --- | --- | --- | --- | --- | --- | --- | --- | --- | --- | --- | --- | --- | --- |
| CC1(C)[C@H](C(=O)O[C@H](C#N)c2cccc(Oc3ccccc3)c2)[C@@H]1C=C(Br)Br [Deltamethrin] | 0 | Hill | 2.614 | 0 | 0.0322 | Constant | 34.81 | 34.1073 | Inactive | Inactive | Inactive | 12300 | 12800 |  |  |  |  |  |  | AR2 antagonist ([2]; activity call, antagonist mode, 18 h): 0; max_med (maximum median response) [2, 14]: 65.39; hill_tp (Hill model top) [2, 15]: 65.8008; AR2 agonist ([3]; activity call, agonist mode, 18 h): 0; OT 8 hr ([4]; activity call, 8 h, single protocol detects agonists and antagonists, invitroDBv3.4 ref U.S. EPA, 2002b): 0; OT 16 hr ([4]; activity call, 16 h, single protocol detects agonists and antagonists, invitroDBv3.4 ref U.S. EPA, 2002b): 0; Antagonist reference ([6]; Supplementary Table S1): Inactive; UPitt antagonist ([8]; activity call, antagonist mode, 2 h, invitroDBv3.4 ref U.S. EPA, 2002b): 0 |
| CCC(=O)O[C@H]1CC[C@H]2[C@@H]3CCC4=CC(=O)CC[C@]4(C)[C@H]3CC[C@]12C [Testosterone propionate] | 0 |  |  |  |  |  | 32.5936 | 43.3025 | Strong | Inactive | Strong |  |  | 100.853 | 102.627 | 0.9765 | 2.087 | 2.0998 | Gain-Loss | change of AC50 value ([9]; median across all biogroups versus CYP2C8, CYP2C9, CYP2C19, CYP3A4): more than 2 fold; AR2 antagonist [2]: 1; hill_gw (Hill model slope) [2]: 1.115; win_model (winning concentration-response model) [2]: Hill; AR2 agonist [3]: 1; AC50 [10]: 169 nM and 529 nM and 333 nM and 440 nM and 380 nM; OT 8 hr [4]: 1; OT 16 hr [4]: 1; AC50 [11]: 234 nM; UPitt antagonist [8]: 0 |
| C[C@]12CC[C@H]3C(=CCc4cc(O)ccc43)[C@@H]1CCC2=O [Equilin] |  | Hill | 1.131 | 3.175 | 3.181 | Hill |  |  |  |  |  | 487 | 861 | 92.4898 | 92.3262 |  |  |  |  | effect of CYP metabolism on AR antagonist activity ([9]; CYP2C19 biogroup): reduced the potency; hill_gw ([3]; sheet agonist_fits, Hill model gain slope (Hill coefficient), 0 given where win_model is Constant): 1.401; hill_tp (Hill model top) [12]: 7.023; max_med (maximum median response) ([12]; spid Viability, sheet antagonist_fits): 12.8285; AC50 ([11]; spid=Bgal, agonist mode, 18 h, no CYP expressed): 2140 nM; AC50 ([11]; spid=No_RNA, agonist mode, 18 h, no CYP expressed): 2290 nM |
| C[C@]1(O)CC[C@H]2[C@@H]3CCC4=CC(=O)CCC4=C3C=C[C@@]21C [R1881, (17b)-17-hydroxy-17-methyl-estra-4,9,11-trien-3-one] |  |  |  |  |  |  |  |  |  |  |  |  |  |  |  | 1.162 | 6.231 | 6.236 | Hill | Emax ([3]; read-out: maximal response): > 95%; effect of CYP metabolism on the AR2 assay controls [13]: unimpacted by CYP metabolism |
